Measured values from patent publication US7468366B2, “Cytotoxic agents” (Rutgers, The State University of New Jersey, priority 2001, dated 2008).

With `COc1cc2c(cc1OC)-c1cnc3cc4c(cc3c1OC2)OCO4` [Example 12, 8,9-Dimethoxy-2,3-methylenedioxy-6H-5-oxa-12-aza-chrysene] the melting point was 239 to 242 °C (dec.).
A melting point of 299 °C was found for `CCCCn1c(=O)c2cc(OC)c(OC)cc2c2nnc3cc4c(cc3c21)OCO4` [Example 10, 2,3-Dimethoxy-8,9-methylenedioxy-11-(n-butyl)-11H-5,6,11-triazachrysen-12-one] in this work.
With `CCCCn1c(=O)c2cc(OC)c(OC)cc2c2cnc3cc4c(cc3c21)OCO4` [Example 11, 8,9-Dimethoxy-2,3-methylenedioxy-5-(butyl)-5H-dibenzo[c,h]1,6-naphthyridin-6-one] the melting point was 224 °C (dec.).
